Source: patent US11851446B2, “Probes for imaging Huntingtin protein” (CHDI Foundation, Inc., priority 2014, dated 2023)

Target: T1, Q46 protein aggregates (Homo sapiens, UniProt P42858, INS38QQQQQQQQQQQQQQQQQQQQQQQQQ)
T1 construct: fused on or other part: GST at the N-terminus, cut off by thrombin before the test to start aggregation
Assay: Q46 Radioligand Binding Assay (RBA)
Details: displacement of 10 nM [3H3]MK-3328 from 5 μM aggregated Q46 protein, 60 minutes at 37° C.
Method: Q46 Radioligand Binding Assay
For radioligand binding assays (RBA) GST-Q46 protein was generated based on a previous publication (Scherzinger et al. Cell, Vol. 90, 549-558, Aug. 8, 1997). For experiments 33 μM GST-Q46 was incubated with 150 μg/mL thrombin in assay buffer (150 mM NaCl, 50 mM Tris pH 8.0) and 2 mM CaCl2 for 16 hours at 37° C. Aggregated Q46 was pelleted by centrifugation for 5 minutes at 13,000 rpm in a bench top centrifuge and re-dissolved in the same volume of assay buffer. Test compounds were prepared by titration in DMSO at 11 concentrations from 33 μM to 1 nM. For the RBA, Q46 protein aggregates and test compounds were pre-incubated in assay buffer for 20 minutes at room temperature, in 140 μL/well in a 96-well plate (pp, round bottom). Then, ligand was added in 10 μL/well and incubated for 60 minutes at 37° C. Final assay concentrations were […] test compound, 5 μM Q46 protein (equivalent monomer concentration) and 10 nM ligand [^3H3]MK-3328 (Harrision et al., ACS Med. Chem. Lett., 2 (2011), pp 498-502). Samples were transferred onto GF/B filter plates and washed 2× with 200 μL PBS using a Filtermate Harvester. After drying filter plates for 1 hour at 37° C., the back of the plates was sealed with foil and 30 μl/well scintillation fluid (Packard MicroScint 40) was added, incubated for […] 15 minutes in the dark and counted in a TopCount reader. For analysis, replicate data from independent assay plates were normalized towards 0% and 100% inhibition using control wells of vehicle (0% inhibition) and 3 μM unlabelled MK-3328 (100% inhibition). IC50 values were determined with a sigmoidal inhibition model with four variables (top, bottom, slope, IC50) in a global fit using the normalized replicate data.

T1 sequence (P42858 with tags, fused parts or gaps with the stated changes): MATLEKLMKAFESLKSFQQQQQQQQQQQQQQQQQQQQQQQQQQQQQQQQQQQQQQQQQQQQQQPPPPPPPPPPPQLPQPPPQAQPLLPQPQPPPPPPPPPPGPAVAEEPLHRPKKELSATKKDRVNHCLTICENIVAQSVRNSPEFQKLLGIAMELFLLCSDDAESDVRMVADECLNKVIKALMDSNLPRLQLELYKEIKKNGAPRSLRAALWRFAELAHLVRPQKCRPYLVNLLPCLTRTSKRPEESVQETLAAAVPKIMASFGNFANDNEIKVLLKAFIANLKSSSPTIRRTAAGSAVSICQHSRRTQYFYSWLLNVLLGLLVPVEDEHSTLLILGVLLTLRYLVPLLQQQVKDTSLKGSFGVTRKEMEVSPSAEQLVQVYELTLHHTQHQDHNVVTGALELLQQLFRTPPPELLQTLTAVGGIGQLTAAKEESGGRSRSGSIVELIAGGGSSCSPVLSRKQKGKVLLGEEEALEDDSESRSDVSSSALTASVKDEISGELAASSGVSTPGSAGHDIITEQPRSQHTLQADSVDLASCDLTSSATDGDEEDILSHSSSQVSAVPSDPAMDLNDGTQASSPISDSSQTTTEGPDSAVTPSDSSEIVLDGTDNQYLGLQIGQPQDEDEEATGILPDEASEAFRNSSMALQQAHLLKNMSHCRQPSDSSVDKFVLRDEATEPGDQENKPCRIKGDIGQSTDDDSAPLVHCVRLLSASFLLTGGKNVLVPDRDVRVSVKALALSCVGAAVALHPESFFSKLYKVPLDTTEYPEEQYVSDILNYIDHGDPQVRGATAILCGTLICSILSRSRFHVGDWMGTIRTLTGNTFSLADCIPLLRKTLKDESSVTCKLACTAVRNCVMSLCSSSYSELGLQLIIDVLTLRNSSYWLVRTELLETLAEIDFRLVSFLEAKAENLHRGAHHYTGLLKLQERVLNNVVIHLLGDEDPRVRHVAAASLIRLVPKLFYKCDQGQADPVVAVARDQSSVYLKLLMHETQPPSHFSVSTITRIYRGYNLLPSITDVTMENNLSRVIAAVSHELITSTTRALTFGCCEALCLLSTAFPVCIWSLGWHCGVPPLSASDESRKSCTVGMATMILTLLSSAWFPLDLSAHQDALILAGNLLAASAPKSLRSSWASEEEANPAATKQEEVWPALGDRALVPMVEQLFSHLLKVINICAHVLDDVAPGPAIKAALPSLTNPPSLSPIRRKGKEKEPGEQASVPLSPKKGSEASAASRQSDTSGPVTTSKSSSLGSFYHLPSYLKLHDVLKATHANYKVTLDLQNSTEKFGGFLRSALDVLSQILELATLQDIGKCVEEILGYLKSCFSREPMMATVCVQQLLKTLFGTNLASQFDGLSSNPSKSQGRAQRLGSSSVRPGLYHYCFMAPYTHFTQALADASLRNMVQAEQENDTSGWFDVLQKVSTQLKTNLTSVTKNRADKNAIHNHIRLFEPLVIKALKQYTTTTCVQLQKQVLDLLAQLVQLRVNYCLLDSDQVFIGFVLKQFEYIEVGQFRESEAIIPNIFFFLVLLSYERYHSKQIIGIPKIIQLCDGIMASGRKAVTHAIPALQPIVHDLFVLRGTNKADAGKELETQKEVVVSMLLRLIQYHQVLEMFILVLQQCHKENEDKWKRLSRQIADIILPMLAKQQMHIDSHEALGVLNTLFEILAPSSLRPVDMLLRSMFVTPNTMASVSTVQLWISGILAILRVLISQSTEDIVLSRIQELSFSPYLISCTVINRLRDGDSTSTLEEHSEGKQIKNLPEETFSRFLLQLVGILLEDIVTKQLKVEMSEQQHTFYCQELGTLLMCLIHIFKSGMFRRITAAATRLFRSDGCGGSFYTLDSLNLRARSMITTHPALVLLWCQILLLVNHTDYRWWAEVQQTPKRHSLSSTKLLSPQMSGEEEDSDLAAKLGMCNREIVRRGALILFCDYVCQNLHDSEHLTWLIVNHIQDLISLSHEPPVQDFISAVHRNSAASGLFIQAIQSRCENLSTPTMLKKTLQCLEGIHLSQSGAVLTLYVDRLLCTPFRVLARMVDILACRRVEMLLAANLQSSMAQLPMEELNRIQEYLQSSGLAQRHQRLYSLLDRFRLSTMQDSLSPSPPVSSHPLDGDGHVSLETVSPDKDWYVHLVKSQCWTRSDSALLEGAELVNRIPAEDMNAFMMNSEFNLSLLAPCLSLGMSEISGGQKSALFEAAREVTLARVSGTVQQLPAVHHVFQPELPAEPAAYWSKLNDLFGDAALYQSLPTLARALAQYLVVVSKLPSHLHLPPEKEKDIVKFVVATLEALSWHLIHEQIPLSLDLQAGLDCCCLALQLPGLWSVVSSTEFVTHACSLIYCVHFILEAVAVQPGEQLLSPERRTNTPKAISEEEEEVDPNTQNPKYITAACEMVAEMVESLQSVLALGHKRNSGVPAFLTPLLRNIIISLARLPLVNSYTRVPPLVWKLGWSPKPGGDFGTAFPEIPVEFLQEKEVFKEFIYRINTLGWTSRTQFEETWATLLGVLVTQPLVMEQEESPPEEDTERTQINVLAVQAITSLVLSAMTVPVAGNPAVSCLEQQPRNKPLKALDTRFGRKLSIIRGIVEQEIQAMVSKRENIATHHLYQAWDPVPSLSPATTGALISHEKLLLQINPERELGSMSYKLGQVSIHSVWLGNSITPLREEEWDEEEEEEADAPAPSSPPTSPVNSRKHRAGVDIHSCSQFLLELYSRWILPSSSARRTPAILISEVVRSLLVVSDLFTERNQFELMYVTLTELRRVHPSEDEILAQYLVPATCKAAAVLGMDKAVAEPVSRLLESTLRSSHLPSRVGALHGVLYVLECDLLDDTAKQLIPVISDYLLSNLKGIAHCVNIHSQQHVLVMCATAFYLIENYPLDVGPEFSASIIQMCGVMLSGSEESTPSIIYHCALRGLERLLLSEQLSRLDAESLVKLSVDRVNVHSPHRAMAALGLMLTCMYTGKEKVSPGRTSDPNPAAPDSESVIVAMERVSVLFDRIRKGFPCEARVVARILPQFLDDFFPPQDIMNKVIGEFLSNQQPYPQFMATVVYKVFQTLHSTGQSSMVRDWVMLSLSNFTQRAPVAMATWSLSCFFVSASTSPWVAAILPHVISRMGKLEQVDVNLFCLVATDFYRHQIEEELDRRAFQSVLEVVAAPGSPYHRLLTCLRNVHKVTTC

Compound | IC50
CNc1c(-c2ccc3occc3c2)nc2cc(C#N)ccn12 [2-(1-benzofuran-5-yl)-3-(methylamino)imidazo[1,2-a]pyridine-7-carbonitrile] | 100 to 500 nM
CNc1c(-c2ccc3c(c2)OCCO3)nc2cc(C#N)ccn12 [2-(2,3-dihydro-1,4-benzodioxin-6-yl)-3-(methylamino)imidazo[1,2-a]pyridine-7-carbonitrile] | 100 to 500 nM
CNc1c(-c2ccc(C#N)cc2)nc2cc(C#N)ccn12 [2-(4-cyanophenyl)-3-(methylamino)imidazo[1,2-a]pyridine-7-carbonitrile] | < 100 nM
CNc1c(-c2ccc(OC)cc2)nc2cc(C#N)ccn12 [2-(4-methoxyphenyl)-3-(methylamino)imidazo[1,2-a]pyridine-7-carbonitrile] | < 100 nM
CNc1c(-c2ccc(OCC3=CSC4=NCCN34)cc2)nc2cc(C#N)ccn12 [2-(4-{5H,6H-imidazo[2,1-b][1,3]thiazol-3-ylmethoxy}phenyl)-3-(methylamino)imidazo[1,2-a]pyridine-7-carbonitrile] | < 100 nM
CNc1c(-c2ccc(NCc3ccc(OC)cn3)cc2)nc2cc(C#N)ccn12 [2-(4-{[(5-methoxypyridin-2-yl)methyl]amino}phenyl)-3-(methylamino)imidazo[1,2-a]pyridine-7-carbonitrile] | < 100 nM
CNc1c(-c2cc3cc(Br)ccc3o2)nc2cc(C#N)ccn12 [2-(5-bromo-1-benzofuran-2-yl)-3-(methylamino)imidazo[1,2-a]pyridine-7-carbonitrile] | < 100 nM
CNc1c(-c2ccc(Br)o2)nc2cc(C#N)ccn12 [2-(5-bromofuran-2-yl)-3-(methylamino)imidazo[1,2-a]pyridine-7-carbonitrile] | 100 to 500 nM
CNc1c(-c2cc3cc(F)ccc3o2)nc2cc(C#N)ccn12 [2-(5-fluoro-1-benzofuran-2-yl)-3-(methylamino)imidazo[1,2-a]pyridine-7-carbonitrile] | < 100 nM
CNc1c(-c2cc3cc(F)ccc3o2)nc2ccccn12 [2-(5-fluoro-1-benzofuran-2-yl)-N-methylimidazo[1,2-a]pyridin-3-amine] | > 500 nM
CNc1c(-c2cc3cc(O)ccc3o2)nc2cc(C#N)ccn12 [2-(5-hydroxy-1-benzofuran-2-yl)-3-(methylamino)imidazo[1,2-a]pyridine-7-carbonitrile] | < 100 nM
CNc1c(-c2nc3cc(OC)ccc3o2)nc2cc(C#N)ccn12 [2-(5-methoxy-1,3-benzoxazol-2-yl)-3-(methylamino)imidazo[1,2-a]pyridine-7-carbonitrile] | < 100 nM
COCc1c(-c2cc3cc(OC)ccc3o2)nc2cc(C#N)ccn12 [2-(5-methoxy-1-benzofuran-2-yl)-3-(methoxymethyl)imidazo[1,2-a]pyridine-7-carbonitrile] | < 100 nM
CNc1c(-c2cc3cc(OC)ccc3o2)nc2ccc(C#N)cn12 [2-(5-methoxy-1-benzofuran-2-yl)-3-(methylamino)imidazo[1,2-a]pyridine-6-carbonitrile] | < 100 nM
CNc1c(-c2cc3cc(OC)ccc3o2)nc2cc(C#N)ccn12 [2-(5-methoxy-1-benzofuran-2-yl)-3-(methylamino)imidazo[1,2-a]pyridine-7-carbonitrile] | < 100 nM
COCCNc1c(-c2cc3cc(OC)ccc3o2)nc2cc(C#N)ccn12 [2-(5-methoxy-1-benzofuran-2-yl)-3-[(2-methoxyethyl)amino]imidazo[1,2-a]pyridine-7-carbonitrile] | < 100 nM

Now from value to molecule:

IC50 | Compound
100 to 500 nM | COCCNc1c(-c2cc3cc(OC)ccc3o2)nc2ccccn12 [2-(5-methoxy-1-benzofuran-2-yl)-N-(2-methoxyethyl)imidazo[1,2-a]pyridin-3-amine]
< 100 nM | CNc1c(-c2cc3cc(OC)ccc3o2)nc2cc(C#C[Si](C)(C)C)ccn12 [2-(5-methoxy-1-benzofuran-2-yl)-N-methyl-7-[2-(trimethylsilyl)ethynyl]imidazo[1,2-a]pyridin-3-amine]
100 to 500 nM | CNc1c(-c2cc3cc(OC)ccc3o2)nc2ccccn12 [2-(5-methoxy-1-benzofuran-2-yl)-N-methylimidazo[1,2-a]pyridin-3-amine]
< 100 nM | COc1ccc2oc(-c3cn4ccc(C#N)cc4n3)cc2c1 [2-(5-methoxy-1-benzofuran-2-yl)imidazo[1,2-a]pyridine-7-carbonitrile]
< 100 nM | CNc1c(-c2nc3cc(OC)ccc3n2C)nc2cc(C#N)ccn12 [2-(5-methoxy-1-methyl-1H-1,3-benzodiazol-2-yl)-3-(methylamino)imidazo[1,2-a]pyridine-7-carbonitrile]
< 100 nM | CNc1c(-c2nc3cc(OC)ccc3[nH]2)nc2cc(C#N)ccn12 [2-(5-methoxy-1H-1,3-benzodiazol-2-yl)-3-(methylamino)imidazo[1,2-a]pyridine-7-carbonitrile]
< 100 nM | CNc1c(-c2nc3ccc(OC)cc3s2)nc2cc(C#N)ccn12 [2-(6-methoxy-1,3-benzothiazol-2-yl)-3-(methylamino)imidazo[1,2-a]pyridine-7-carbonitrile]
< 100 nM | CNc1c(-c2cc3ccc(OC)cc3o2)nc2cc(C#N)ccn12 [2-(6-methoxy-1-benzofuran-2-yl)-3-(methylamino)imidazo[1,2-a]pyridine-7-carbonitrile]
< 100 nM | CNc1c(-c2nc3ccc(OC)cc3n2C)nc2cc(C#N)ccn12 [2-(6-methoxy-1-methyl-1H-1,3-benzodiazol-2-yl)-3-(methylamino)imidazo[1,2-a]pyridine-7-carbonitrile]
100 to 500 nM | CNc1c(-c2cc3cc(O)ccc3o2)nc2ccc(F)cn12 [2-[6-fluoro-3-(methylamino)imidazo[1,2-a]pyridin-2-yl]-1-benzofuran-5-ol]
< 100 nM | CNc1c(-c2cc3cc(O)ccc3o2)nc2cc(F)ccn12 [2-[7-fluoro-3-(methylamino)imidazo[1,2-a]pyridin-2-yl]-1-benzofuran-5-ol]
< 100 nM | CNc1c(/C=C/c2ccc(OC)cc2)nc2cc(C#N)ccn12 [2-[(E)-2-(4-methoxyphenyl)ethenyl]-3-(methylamino)imidazo[1,2-a]pyridine-7-carbonitrile]
100 to 500 nM | OCCNc1c(-c2cc3cc(O)ccc3o2)nc2ccccn12 [2-{3-[(2-hydroxyethyl)amino]imidazo[1,2-a]pyridin-2-yl}-1-benzofuran-5-ol]
< 100 nM | CNc1c(-c2cccc(OCc3cnc(OC)cn3)c2)nc2cc(C#N)ccn12 [2-{3-[(5-methoxypyrazin-2-yl)methoxy]phenyl}-3-(methylamino)imidazo[1,2-a]pyridine-7-carbonitrile]
< 100 nM | CNc1c(-c2ccc(OCc3cnc(OC)cn3)cc2)nc2cc(C#N)ccn12 [2-{4-[(5-methoxypyrazin-2-yl)methoxy]phenyl}-3-(methylamino)imidazo[1,2-a]pyridine-7-carbonitrile]
100 to 500 nM | CNc1c(-c2cc3cc(OCCN(C)C)ccc3o2)nc2cc(C#N)ccn12 [2-{5-[2-(dimethylamino)ethoxy]-1-benzofuran-2-yl}-3-(methylamino)imidazo[1,2-a]pyridine-7-carbonitrile]
< 100 nM | CNc1c(-c2ccc(OCc3cnc(OC)cn3)cn2)nc2cc(C#N)ccn12 [2-{5-[(5-methoxypyrazin-2-yl)methoxy]pyridin-2-yl}-3-(methylamino)imidazo[1,2-a]pyridine-7-carbonitrile]
< 100 nM | CNc1c(-c2cnc(OCc3ccc(OC)cn3)cn2)nc2cc(C#N)ccn12 [2-{5-[(5-methoxypyridin-2-yl)methoxy]pyrazin-2-yl}-3-(methylamino)imidazo[1,2-a]pyridine-7-carbonitrile]
< 100 nM | CNc1c(-c2ccc(OCc3cnc(OC)cn3)nc2)nc2cc(C#N)ccn12 [2-{6-[(5-methoxypyrazin-2-yl)methoxy]pyridin-3-yl}-3-(methylamino)imidazo[1,2-a]pyridine-7-carbonitrile]
< 100 nM | CNc1c(-c2cn3c(n2)sc2cc(OC)ccc23)nc2cc(C#N)ccn12 [2-{10-methoxy-7-thia-2,5-diazatricyclo[6.4.0.0^2,6]dodeca-1(12),3,5,8,10-pentaen-4-yl}-3-(methylamino)imidazo[1,2-a]pyridine-7-carbonitrile]
< 100 nM | CNc1c(-c2cn3c(n2)sc2ccc(OC)cc23)nc2cc(C#N)ccn12 [2-{11-methoxy-7-thia-2,5-diazatricyclo[6.4.0.0^2,6]dodeca-1(12),3,5,8,10-pentaen-4-yl}-3-(methylamino)imidazo[1,2-a]pyridine-7-carbonitrile]
100 to 500 nM | COc1ccc2oc(-c3nc4cc(C#N)ccn4c3N(C)C)cc2c1 [3-(dimethylamino)-2-(5-methoxy-1-benzofuran-2-yl)imidazo[1,2-a]pyridine-7-carbonitrile]
< 100 nM | CNc1c(-c2cccc(-c3cnccn3)c2)nc2cc(C#N)ccn12 [3-(methylamino)-2-[3-(pyrazin-2-yl)phenyl]imidazo[1,2-a]pyridine-7-carbonitrile]
